Among the data in PubChem BioAssay (NCI) are TGI values, retold here.

Molecules are shown by their SMILES.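 These data come from cells grown in 96-well plates and exposed to compound for 48 hours at five concentrations. Definition used: TGI = concentration required for complete inhibition of growth.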 Bounds are passed on as bounds.

Test systems include K-562 leukemia; MOLT-4 leukemia; A498 renal; UO-31 renal; UACC-62 melanoma; HOP-92 NSCLC; KM12 colon; MDA-MB-231 breast; RXF 393 renal; SK-MEL-28 melanoma; RPMI-8226 leukemia; SK-MEL-5 melanoma; MCF7 breast; SNB-75 CNS.
Assay in all cases: inhibition of tumour cell growth, NCI panel, 48 h

With `O=C1CC(CC(=O)c2ccc(Br)cc2)C(=O)/C1=C(/O)c1ccc(Br)cc1` (centres undefined), the TGI in the assay on K-562 leukemia, with MOLT-4 leukemia, in the assay on A498 renal, in the assay with UO-31 renal, in the assay with UACC-62 melanoma and with HOP-92 NSCLC was > 100 µM each time. In addition, the TGI in the assay on KM12 colon, in the assay with MDA-MB-231 breast, in the assay with RXF 393 renal, in the assay on SK-MEL-28 melanoma, in the assay with RPMI-8226 leukemia and in the assay on SK-MEL-5 melanoma was > 100 µM throughout. In addition, the TGI in the assay on MCF7 breast was > 100 µM.

As for `CCOC(=O)/C(=N/Nc1ccccc1)N1C(=S)C=C(C)NN(C)C1=S`, the TGI in the assay with K-562 leukemia, with MOLT-4 leukemia, with UO-31 renal, with UACC-62 melanoma, with HOP-92 NSCLC and in the assay on KM12 colon was > 100 µM each time. The TGI in the assay with MDA-MB-231 breast was > 100 µM; in the assay with RXF 393 renal, 20.1 µM; in the assay on SK-MEL-28 melanoma it was > 100 µM; in the assay on RPMI-8226 leukemia, > 100 µM; in the assay with SK-MEL-5 melanoma, > 100 µM; in the assay with MCF7 breast, > 100 µM.

Turning to `COc1ccc(OC)c2c1C=CC(Br)=CC2`, the TGI in the assay on K-562 leukemia was 0.419 µM; with MOLT-4 leukemia, 0.478 µM; in the assay on A498 renal it was > 1 µM; with UO-31 renal, > 1 µM; in the assay on UACC-62 melanoma, 0.345 µM; in the assay with HOP-92 NSCLC, 0.463 µM. Moreover, the TGI was 0.85 µM in the assay on KM12 colon; 0.958 µM with MDA-MB-231 breast; > 1 µM in the assay with SK-MEL-28 melanoma; 0.387 µM in the assay on RPMI-8226 leukemia; > 1 µM in the assay on SK-MEL-5 melanoma; > 1 µM with MCF7 breast.

With `COC(C)(C)/C=C/c1[nH]c2ccccc2c1CC(=O)NCCc1cn(C(c2ccccc2)(c2ccccc2)c2ccccc2)cn1`, the TGI with K-562 leukemia is > 36 µM; in the assay on MOLT-4 leukemia, 6.21 µM; in the assay with A498 renal it was 12.9 µM; in the assay on UO-31 renal, 61.8 µM; in the assay with UACC-62 melanoma, 21.3 µM; in the assay with HOP-92 NSCLC, > 28.3 µM. Also, the TGI was > 87.3 µM in the assay on KM12 colon; 15 µM with MDA-MB-231 breast; > 100 µM in the assay on RXF 393 renal; 29.8 µM in the assay on SK-MEL-28 melanoma; 6.77 µM with RPMI-8226 leukemia; 7.36 µM with SK-MEL-5 melanoma. This compound also gave a TGI with MCF7 breast of 15.5 µM.

Regarding `CN(CCCNC(=O)c1cn(C)c2c1Cc1ccccc1-2)CCCNC(=O)c1cn(C)c2c1Cc1ccccc1-2`, the TGI stood at 17 µM in the assay with K-562 leukemia; 16.4 µM in the assay on MOLT-4 leukemia; 26.8 µM with A498 renal; 21.8 µM in the assay on UO-31 renal; 27.6 µM with UACC-62 melanoma; 7.89 µM with HOP-92 NSCLC. For the same compound, the TGI was 26.9 µM with KM12 colon; 27.4 µM in the assay with MDA-MB-231 breast; 34.9 µM in the assay with RXF 393 renal; 24 µM in the assay on SK-MEL-28 melanoma; > 100 µM in the assay on RPMI-8226 leukemia; 28.4 µM in the assay on SK-MEL-5 melanoma. The same compound yielded a TGI in the assay with MCF7 breast of 25.4 µM.

Consider `O=[N+]([O-])c1ccc(-n2nc3ccc4c(no[n+]4[O-])c3n2)cc1`, for which the TGI with K-562 leukemia, in the assay on MOLT-4 leukemia, in the assay with UO-31 renal, in the assay on UACC-62 melanoma, in the assay on HOP-92 NSCLC and in the assay with KM12 colon was > 100 µM in each case. The TGI in the assay on MDA-MB-231 breast, in the assay with SK-MEL-28 melanoma, in the assay with SNB-75 CNS, in the assay on SK-MEL-5 melanoma and with MCF7 breast was > 100 µM in each case.

For the compound `OC(CN(CCCl)CCCl)C(O)C(O)C(O)CN(CCCl)CCCl` (centres undefined), the TGI with K-562 leukemia, with A498 renal, with UO-31 renal, in the assay on UACC-62 melanoma, with HOP-92 NSCLC and with KM12 colon was > 100 µM in each case. Moreover, the TGI in the assay on MDA-MB-231 breast, in the assay on RXF 393 renal, with SK-MEL-28 melanoma, in the assay on RPMI-8226 leukemia, in the assay with SK-MEL-5 melanoma and with MCF7 breast was > 100 µM in each case.

Turning to `Cc1c(N=C/C=C/c2ccccc2)c(=O)n(-c2ccccc2)n1C`, the TGI with MOLT-4 leukemia was 83.8 µM; with A498 renal, 87.2 µM; in the assay with UO-31 renal it was > 100 µM; in the assay with UACC-62 melanoma it was 36 µM; with HOP-92 NSCLC, > 100 µM; in the assay with KM12 colon, 77.2 µM. The TGI in the assay on MDA-MB-231 breast is > 100 µM; with RXF 393 renal, > 100 µM; in the assay with SK-MEL-28 melanoma it was 39.8 µM; in the assay with RPMI-8226 leukemia, 38.6 µM; with SK-MEL-5 melanoma it was 31 µM; with MCF7 breast, 60.5 µM.

Turning to `CSc1ccc(Nc2cc(=O)[nH]c(=O)[nH]2)cc1`, the TGI in the assay on K-562 leukemia, with MOLT-4 leukemia, in the assay with A498 renal, in the assay on UO-31 renal, in the assay on UACC-62 melanoma and in the assay with HOP-92 NSCLC was > 100 µM in each case. Besides, the TGI in the assay on MDA-MB-231 breast, in the assay on SK-MEL-28 melanoma, in the assay with RPMI-8226 leukemia, in the assay on SK-MEL-5 melanoma and with MCF7 breast was > 100 µM each time.
